Reference: patent publication US9187472B2 (AbbVie Inc., priority 2012, dated 2015)

Assays:
PC3 cells = assay: NAMPT Cell Proliferation Assay; format: cell-based; details: Homo sapiens, PC-3, 120 h, 5 days incubation, cell viability by Cell Titer Glo
Summary of the method: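 Following overnight attachment in RPMI with 10% heat-inactivated FBS, PC3 cells at 500 per well receive compounds spanning 10 μM down to 1×10^−5 μM. Growth is assessed by luminescent viability read after 5 days.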

NAMPT = NAMPT (Homo sapiens, UniProt P43490); assay: TR-FRET Binding Assay of NAMPT with PRPP; details: with 200 μM PRPP and 2.5 mM ATP; 2 nM NAMPT, 2 nM probe, 16 hours equilibration
Summary of the method: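 NAMPT 2 nM + probe 2 nM + Tb-anti-His Ab 1 nM; PRPP 200 μM, ATP 2.5 mM, DMSO 2%; 16 h equilibration before TR-FRET read.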

[1] = target: NAMPT (human, recombinant, C-terminally His-tagged) (Homo sapiens, UniProt P43490); assay: Time-Resolved Fluorescence Resonance Energy Transfer (TR-FRET) Binding Assay of NAMPT; details: without substrates; 6.8 nM NAMPT, 200 nM probe, 3 hours equilibration
Summary of the method: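 Read-out is the time-resolved FRET ratio Em520/Em495 (excitation 337 nm) between a terbium anti-His antibody (1 nM) on the enzyme and an Oregon Green 488-labelled nicotinamide-competitive inhibitor probe (200 nM). Enzyme was 6.8 nM, DMSO 2%, pH 7.5 HEPES buffer; 3 h room-temperature equilibration preceded reading.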

NAMPT (human, recombinant, C-terminally His-tagged), sequence (P43490 whole entry): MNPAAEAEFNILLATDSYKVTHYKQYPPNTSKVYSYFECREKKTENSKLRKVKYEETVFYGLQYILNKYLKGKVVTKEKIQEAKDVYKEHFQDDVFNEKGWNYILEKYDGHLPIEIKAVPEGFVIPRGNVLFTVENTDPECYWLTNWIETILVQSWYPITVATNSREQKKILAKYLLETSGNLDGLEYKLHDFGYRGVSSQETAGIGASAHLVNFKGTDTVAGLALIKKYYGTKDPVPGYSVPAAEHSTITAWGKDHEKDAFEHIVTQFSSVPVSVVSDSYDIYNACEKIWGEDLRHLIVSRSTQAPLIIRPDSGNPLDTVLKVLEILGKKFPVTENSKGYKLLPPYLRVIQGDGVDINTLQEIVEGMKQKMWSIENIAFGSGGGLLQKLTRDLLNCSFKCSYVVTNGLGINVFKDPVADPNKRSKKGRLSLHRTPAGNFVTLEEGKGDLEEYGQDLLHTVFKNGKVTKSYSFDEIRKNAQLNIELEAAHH
NAMPT, sequence (P43490 whole entry): as above

SMILES | IC50 (PC3 cells) [nM] | IC50 (NAMPT) [nM] | IC50 [1] [nM]
CC(C)CC(=O)Nc1ncc(C(=O)NCc2ccc3nccn3c2)s1 [Example 137, N-(imidazo[1,2-a]pyridin-6-ylmethyl)-2-[(3-methylbutanoyl)amino]-1,3-thiazole-5-carboxamide] | 225 | 7.21 | 315
COCCNC(=O)N(CC1CCCO1)c1ncc(C(=O)NCc2ccn3ccnc3c2)s1 (stereo not drawn) [Example 138, N-(imidazo[1,2-a]pyridin-7-ylmethyl)-2-{[(2-methoxyethyl)carbamoyl](tetrahydrofuran-2-ylmethyl)amino}-1,3-thiazole-5-carboxamide] | 3.83 | 0.424 | 80.7
COCCC(=O)N(CC1CCOC1)c1ncc(C(=O)NCc2ccc3nccn3c2)s1 (stereo not drawn) [Example 139, N-(imidazo[1,2-a]pyridin-6-ylmethyl)-2-[(3-methoxypropanoyl)(tetrahydrofuran-3-ylmethyl)amino]-1,3-thiazole-5-carboxamide] | 12.2 | 0.173 | 582
O=C(NCc1ccc2nccn2c1)c1cnc(N(CC2CCOC2)C(=O)C2CCOCC2)s1 (stereo not drawn) [Example 140, N-(imidazo[1,2-a]pyridin-6-ylmethyl)-2-[(tetrahydrofuran-3-ylmethyl)(tetrahydro-2H-pyran-4-ylcarbonyl)amino]-1,3-thiazole-5-carboxamide] | 65.5 | 0.927 | 1340
COCCNC(=O)N(CC1CCOC1)c1ncc(C(=O)NCc2ccc3nccn3c2)s1 (stereo not drawn) [Example 141, N-(imidazo[1,2-a]pyridin-6-ylmethyl)-2-{[(2-methoxyethyl)carbamoyl](tetrahydrofuran-3-ylmethyl)amino}-1,3-thiazole-5-carboxamide] | 77.8 | 0.757 | 2110
COCCC(=O)N(CC1CCOCC1)c1ncc(C(=O)NCc2ccc3nccn3c2)s1 [Example 142, N-(imidazo[1,2-a]pyridin-6-ylmethyl)-2-[(3-methoxypropanoyl)(tetrahydro-2H-pyran-4-ylmethyl)amino]-1,3-thiazole-5-carboxamide] | 18.2 | 3.05 | 1430
O=C(NCc1ccc2nccn2c1)c1cnc(N(CC2CCOCC2)C(=O)C2CCOC2)s1 (stereo not drawn) [Example 143, N-(imidazo[1,2-a]pyridin-6-ylmethyl)-2-[(tetrahydrofuran-3-ylcarbonyl)(tetrahydro-2H-pyran-4-ylmethyl)amino]-1,3-thiazole-5-carboxamide] | 80.8 | 2.03 | 8710
O=C(NCc1ccc2nccn2c1)c1cnc(N(CC2CCOCC2)C(=O)C2CCOCC2)s1 [Example 144, N-(imidazo[1,2-a]pyridin-6-ylmethyl)-2-[(tetrahydro-2H-pyran-4-ylcarbonyl)(tetrahydro-2H-pyran-4-ylmethyl)amino]-1,3-thiazole-5-carboxamide] | 187 | 2.92 | 9490
COCCC(=O)N(C[C@H]1CCCO1)c1ncc(C(=O)NCc2ccc3nccn3c2)s1 [Example 145, N-(imidazo[1,2-a]pyridin-6-ylmethyl)-2-{(3-methoxypropanoyl)[(2R)-tetrahydrofuran-2-ylmethyl]amino}-1,3-thiazole-5-carboxamide] | 6.01 | 1.08 | 191
O=C(NCc1ccc2nccn2c1)c1cnc(N(C[C@H]2CCCO2)C(=O)C2CCOC2)s1 (stereo partly drawn) [Example 146, N-(imidazo[1,2-a]pyridin-6-ylmethyl)-2-{(tetrahydrofuran-3-ylcarbonyl)[(2R)-tetrahydrofuran-2-ylmethyl]amino}-1,3-thiazole-5-carboxamide] | 7.69 | 0.403 | 261
O=C(NCc1ccc2nccn2c1)c1cnc(N(C[C@H]2CCCO2)C(=O)C2CCOCC2)s1 [Example 147, N-(imidazo[1,2-a]pyridin-6-ylmethyl)-2-{[(2R)-tetrahydrofuran-2-ylmethyl](tetrahydro-2H-pyran-4-ylcarbonyl)amino}-1,3-thiazole-5-carboxamide] | 6.69 | 0.63 | 251
